Experimental data: PubChem BioAssay AID2060493 (Molecular Pharmacology Branch, DTP, NCI, 2025)

Tested on: 616215-338-R-J1-PDC tumor spheroids, viability
Assay: Anticancer human tumor 616215-338-R-J1-PDC patient-derived colon adenocarcinoma cell line growth inhibition [GQUAD]
Settings: spheroids with HUVEC and MSC; for IC50: curve of first compound; for viability, T/C: stronger effect = lower value
Outline: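 Multi-cell-type spheroids of tumor cells with HUVEC and mesenchymal stem cells, treated with drug combinations. Concentrations descend in half-log steps from near clinical Cmax, or from 10 microM where Cmax is unknown; viability read-out.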

[1] = second compound 0.0316 µM, first compound 0.000999 µM
[2] = second compound 0.0316 µM, first compound 0.00316 µM
[3] = second compound 0.0316 µM, first compound 0.00999 µM
[4] = second compound 0.0316 µM, first compound 0.0316 µM
[5] = second compound 0.0316 µM, first compound 0.0999 µM
[6] = second compound 0.0316 µM, first compound 0.316 µM
[7] = second compound 0.1 µM, first compound 0.000999 µM
[8] = second compound 0.1 µM, first compound 0.00316 µM
[9] = second compound 0.1 µM, first compound 0.00999 µM
[10] = second compound 0.1 µM, first compound 0.0316 µM
[11] = second compound 0.1 µM, first compound 0.0999 µM
[12] = second compound 0.1 µM, first compound 0.316 µM
[13] = second compound 0.316 µM, first compound 0.000999 µM
[14] = second compound 0.316 µM, first compound 0.00316 µM
[15] = second compound 0.316 µM, first compound 0.00999 µM
[16] = second compound 0.316 µM, first compound 0.0316 µM
[17] = second compound 0.316 µM, first compound 0.0999 µM
[18] = second compound 0.316 µM, first compound 0.316 µM
[19] = second compound 1 µM, first compound 0.000999 µM
[20] = second compound 1 µM, first compound 0.00316 µM
[21] = second compound 1 µM, first compound 0.00999 µM
[22] = second compound 1 µM, first compound 0.0316 µM
[23] = second compound 1 µM, first compound 0.0999 µM
[24] = second compound 1 µM, first compound 0.316 µM
[25] = second compound 3.16 µM, first compound 0.000999 µM
[26] = second compound 3.16 µM, first compound 0.00316 µM
[27] = second compound 3.16 µM, first compound 0.00999 µM
[28] = second compound 3.16 µM, first compound 0.0316 µM
[29] = second compound 3.16 µM, first compound 0.0999 µM
[30] = second compound 3.16 µM, first compound 0.316 µM
[31] = second compound 10 µM, first compound 0.000999 µM
[32] = second compound 10 µM, first compound 0.00316 µM
[33] = second compound 10 µM, first compound 0.00999 µM
[34] = second compound 10 µM, first compound 0.0316 µM
[35] = second compound 10 µM, first compound 0.0999 µM
[36] = second compound 10 µM, first compound 0.316 µM
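Note: spheroids exposed to agents for 7 days before readout.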
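Throughout, for viability, T/C: percent viability relative to DMSO vehicle control wells taken as 100%.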

With `CC[C@@]1(O)C(=O)OCc2c1cc1n(c2=O)Cc2cc3c(CN(C)C)c(O)ccc3nc2-1` + Cc1[nH]c2ccc(F)cc2c1-c1nc2c3cccnc3c3ncccc3c2[nH]1 as the compound, how does the IC50 (second compound 0.0316 µM) read?
Its IC50 is 302 nM.

What about the IC50 (second compound 0.1 µM) of the same compound?
Its IC50 is over 316 nM.

What about the IC50 (second compound 0.316 µM) of the same compound?
The IC50 was 232 nM.

What about the IC50 (second compound 1 µM) of the same compound?
Its IC50 is over 316 nM.

And the IC50 (second compound 3.16 µM)?
The IC50 was 262 nM.

What about the IC50 (second compound 10 µM) of the same compound?
The IC50 was 186 nM.

And the viability, T/C [1]?
The viability, T/C was 102%.

What about the viability, T/C [2] of the same compound?
Its viability, T/C is 99.7%.

And the viability, T/C [3]?
Its viability, T/C is 103%.

What about the viability, T/C [4] of the same compound?
The viability, T/C was 99.4%.

What about the viability, T/C [5] of the same compound?
The viability, T/C was 90.5%.

What about the viability, T/C [6] of the same compound?
Its viability, T/C is 48.2%.

What about the viability, T/C [7] of the same compound?
The viability, T/C was 105%.

And the viability, T/C [8]?
Its viability, T/C is 111%.

What about the viability, T/C [9] of the same compound?
Its viability, T/C is 97%.

And the viability, T/C [10]?
Its viability, T/C is 101%.

What about the viability, T/C [11] of the same compound?
Its viability, T/C is 89.5%.

What about the viability, T/C [12] of the same compound?
The viability, T/C was 55.2%.

What about the viability, T/C [13] of the same compound?
Its viability, T/C is 88.9%.

And the viability, T/C [14]?
Its viability, T/C is 109%.

What about the viability, T/C [15] of the same compound?
The viability, T/C was 100%.

And the viability, T/C [16]?
Its viability, T/C is 101%.

What about the viability, T/C [17] of the same compound?
The viability, T/C was 79.8%.

What about the viability, T/C [18] of the same compound?
Its viability, T/C is 38.9%.

What about the viability, T/C [19] of the same compound?
Its viability, T/C is 93%.

What about the viability, T/C [20] of the same compound?
The viability, T/C was 108%.

What about the viability, T/C [21] of the same compound?
The viability, T/C was 95.3%.

And the viability, T/C [22]?
The viability, T/C was 97.7%.

And the viability, T/C [23]?
Its viability, T/C is 90.9%.

What about the viability, T/C [24] of the same compound?
Its viability, T/C is 51.1%.

What about the viability, T/C [25] of the same compound?
The viability, T/C was 88.8%.

And the viability, T/C [26]?
The viability, T/C was 89.9%.

What about the viability, T/C [27] of the same compound?
The viability, T/C was 92%.

What about the viability, T/C [28] of the same compound?
The viability, T/C was 95.5%.

What about the viability, T/C [29] of the same compound?
The viability, T/C was 87%.

And the viability, T/C [30]?
The viability, T/C was 42.6%.

What about the viability, T/C [31] of the same compound?
The viability, T/C was 98.2%.

What about the viability, T/C [32] of the same compound?
The viability, T/C was 110%.

And the viability, T/C [33]?
The viability, T/C was 87.8%.

What about the viability, T/C [34] of the same compound?
Its viability, T/C is 94.5%.

And the viability, T/C [35]?
The viability, T/C was 71.4%.

And the viability, T/C [36]?
The viability, T/C was 31.4%.

Which results are given for `CC1COCCN1c1cc(-c2ccnn2C)c2ccnc(-c3ccn[nH]3)c2n1` (stereo unspecified) + Cc1[nH]c2ccc(F)cc2c1-c1nc2c3cccnc3c3ncccc3c2[nH]1?
IC50 (second compound 0.0316 µM): 224 nM; IC50 (second compound 0.1 µM): 139 nM; IC50 (second compound 0.316 µM): 185 nM; IC50 (second compound 1 µM): 170 nM; IC50 (second compound 3.16 µM): 140 nM; IC50 (second compound 10 µM): 140 nM; viability, T/C [4]: 96.6%; viability, T/C (second compound 0.0316 µM, first compound 0.1 µM): 70.7%; viability, T/C [6]: 41.7%; viability, T/C (second compound 0.0316 µM, first compound 1 µM): 25.1%; viability, T/C (second compound 0.0316 µM, first compound 3.16 µM): 30.2%; viability, T/C (second compound 0.0316 µM, first compound 10 µM): 20.1%; viability, T/C [10]: 97.8%; viability, T/C (second compound 0.1 µM, first compound 0.1 µM): 56.3%; viability, T/C [12]: 34.1%; viability, T/C (second compound 0.1 µM, first compound 1 µM): 25.2%; viability, T/C (second compound 0.1 µM, first compound 3.16 µM): 24.9%; viability, T/C (second compound 0.1 µM, first compound 10 µM): 19.9%; viability, T/C [16]: 91.5%; viability, T/C (second compound 0.316 µM, first compound 0.1 µM): 62.1%; viability, T/C [18]: 40%; viability, T/C (second compound 0.316 µM, first compound 1 µM): 27.7%; viability, T/C (second compound 0.316 µM, first compound 3.16 µM): 22.6%; viability, T/C (second compound 0.316 µM, first compound 10 µM): 23.9%; viability, T/C [22]: 91.5%; viability, T/C (second compound 1 µM, first compound 0.1 µM): 63%; viability, T/C [24]: 33.6%; viability, T/C (second compound 1 µM, first compound 1 µM): 32.2%; viability, T/C (second compound 1 µM, first compound 3.16 µM): 22.9%; viability, T/C (second compound 1 µM, first compound 10 µM): 24.7%; viability, T/C [28]: 91.9%; viability, T/C (second compound 3.16 µM, first compound 0.1 µM): 57.9%; viability, T/C [30]: 30.2%; viability, T/C (second compound 3.16 µM, first compound 1 µM): 26.1%; viability, T/C (second compound 3.16 µM, first compound 3.16 µM): 21.2%; viability, T/C (second compound 3.16 µM, first compound 10 µM): 17.9%; viability, T/C [34]: 90.1%; viability, T/C (second compound 10 µM, first compound 0.1 µM): 50%; viability, T/C [36]: 40.3%; viability, T/C (second compound 10 µM, first compound 1 µM): 31.5%; viability, T/C (second compound 10 µM, first compound 3.16 µM): 22.6%; viability, T/C (second compound 10 µM, first compound 10 µM): 16.4%

Which results are given for `Cc1[nH]c2ccccc2c1CCNCc1ccc(/C=C/C(=O)NO)cc1` + Cc1cnc(CNC(=O)c2c(=O)c3ccc(N4CCCN(C)CC4)nc3n3c2sc2ccccc23)cn1?
IC50 (second compound 0.0316 µM): 83.5 nM; IC50 (second compound 0.1 µM): 110 nM; IC50 (second compound 0.316 µM): < 0.999 nM; IC50 (second compound 1 µM): < 0.999 nM; IC50 (second compound 3.16 µM): < 0.999 nM; IC50 (second compound 10 µM): < 0.999 nM; viability, T/C [1]: 98.6%; viability, T/C [2]: 99.3%; viability, T/C [3]: 101%; viability, T/C [4]: 105%; viability, T/C [5]: 40.5%; viability, T/C [6]: 24.4%; viability, T/C [7]: 59.6%; viability, T/C [8]: 90%; viability, T/C [9]: 60.8%; viability, T/C [10]: 66.6%; viability, T/C [11]: 54.4%; viability, T/C [12]: 6.92%; viability, T/C [13]: 40.8%; viability, T/C [14]: 38.2%; viability, T/C [15]: 38.2%; viability, T/C [16]: 47.9%; viability, T/C [17]: 39.1%; viability, T/C [18]: 0.77%; viability, T/C [19]: 36.5%; viability, T/C [20]: 23.8%; viability, T/C [21]: 28.2%; viability, T/C [22]: 23.2%; viability, T/C [23]: 13.7%; viability, T/C [24]: 0.06%; viability, T/C [25]: 27.9%; viability, T/C [26]: 21.8%; viability, T/C [27]: 24.9%; viability, T/C [28]: 26.6%; viability, T/C [29]: 0.75%; viability, T/C [30]: 0.11%; viability, T/C [31]: 24.7%; viability, T/C [32]: 34.2%; viability, T/C [33]: 15.5%; viability, T/C [34]: 17.7%; viability, T/C [35]: 0.25%; viability, T/C [36]: 0.21%
